From patent publication US12174192B2, “Methods for detecting and treating cancers having adenosine pathway activation” (Corvus Pharmaceuticals, Inc., priority 2018, dated 2024) come the findings set out here.

Entries after “also recorded” stand apart in the source; their conditions may differ.

In test [1] the test system is adenosine-modulated genes and proteins. The test can be described thus: Adenosine-induced genes and proteins in tumor biopsies from treated patients. Also noted: species or system human. The following applies: in vitro and in vivo in tumor biopsies from treated patients. An excerpt: Expression of a subset of genes that are modulated by adenosine levels correlates with tumor regression in the ongoing Ph 1/1b trial with CPI-444 treatment in RCC. […] A2AR agonists induce a specific gene signature dominated by immunosuppressive mediators of MDSC and monocyte/macrophage biology. […] These genes and proteins may identify patients with high levels of adenosine and be used as biomarkers for patient selection to select patients most likely to respond to therapy with agents that antagonize adenosine production or signaling.

In test [2] the test system is advanced cancers. The test can be described thus: Ongoing phase 1/1b trial of CPI-444 monotherapy in patients with advanced cancers. The class given is in vivo, human. An excerpt:
“Adenosine receptor antagonist” refers to a molecule that inhibits activity of adenosine receptors (e.g. A2A or A2B receptors), typically through direct action. Adenosine receptors antagonists can be small or large molecule antagonists. In embodiments, CPI-444 is an example A2A receptor antagonist. […] CPI-444 is described, for example, in PCT Patent Publication No. WO 2017/112917; each of which is incorporated herein by reference in its entirety.

In test [3] the test system is IL6 and IL8. As to the kind of experiment: Plasma IL6 and IL8 protein levels in RCC patients after CPI-444 treatment. The class given is in vivo, human. The following applies: RCC patients with reduction in tumor size (best response); after treatment (4 weeks).
Test [4] has as its system PBMCs. As to the kind of experiment: CXCL5 protein ELISA in culture supernatants of PBMCs treated with NECA +/- CPI-444. The following applies: PBMCs from two human donors; NECA then CPI-444 then anti-CD3/CD28; two days after activation. The class given is cell-based. As to the method:
Expression of CXCL5 was determined by ELISA 2 days after activation.
FIGS. 2B and 2C show the response of PBMCs from two different donors to NECA+/−CPI-444 treatment. DMSO was used as vehicle control. […] This control helps establish that the induction of CXCL5 is specific to signaling through adenosine receptors.
NECA activation of CXCL5 protein expression was evaluated. PBMCs were harvested from two different human donors. […] CPI-444 (Corvus Pharmaceuticals) is an antagonist of the adenosine A2A receptor. CXCL5 protein in the culture supernatants was evaluated by ELISA two days after activation. CXCL5 expression is activated by NECA. […] This establishes that the induction of CXCL5 is specific to signaling through adenosine receptors.
On the technique in general: An ELISA detects its analyte on a solid surface through an enzyme-linked reagent.

Test [5] has as its system A2AR. The test can be described thus: In vitro A2AR stimulation gene signature and its inhibition by CPI-444. The class given is cell-based, human. The settings on record: transcript and protein level. As to the method:
RNA purified from normal, healthy human peripheral blood mononuclear cells (PBMCs) treated with 5′-N-ethylcarboxamidoadenosine (NECA) and activated with anti-CD3/CD28 antibody were analyzed by NanoString hybridization-based quantification (NanoString Technologies, Inc.). […] Each dot represents the expression level of a specific gene. Dot shade represents the concentration of NECA used and/or different PBMC donors. […] Increases in monocyte/macrophage inflammatory mediators such as IL-1b and CCL2,3,7,8, 20 were also observed, as were increases in SERPINB2, S100A8, PTGS2, THBS1. Expression of CXCL10 and GZMB were decreased, consistent with a suppressed IFNg response. […] A2AR agonists induce a specific gene signature (increase in a certain subset of genes and/or decrease in a second subset of genes) dominated by immunosuppressive mediators of MDSC and monocyte/macrophage biology. Inhibition of these genes by CPI-444 are observed. These gene signatures may be used as biomarkers for patient selection.

Test [6] has as its system renal tumors (RCC). As to the kind of experiment: Change in tumor size in renal cancer patients treated with CPI-444 (Ph 1/1b trial). The class given is in vivo, human. As to the method:
Methods: Tumor biopsies obtained at trial screening from patients with RCC (n=30) were analyzed for gene expression profiles with the Nanostring PanCancer Immune Panel that included 770 markers of immune activity and inflammation. The gene expression correlation (Spearman) matrix was hierarchically clustered (Ward's method) to identify modules of genes that were co-expressed across tumors. Gene expression was normalized to housekeeper genes included in the PanCancer Immune Panel. Gene cluster expression intensity was compared between patients with evaluable best change in tumor size ≤0 (n=8) vs >0 (n=15). The composite gene expression score was calculated as the average of the Log2 of expression values (normalized Nanostring counts) for seven genes (CXCL1, CXCL2, CXCL3, CXCL5, IL1B, IL8, SERPINB2) shown to be induced in vitro in normal peripheral blood mononuclear cells by adenosine. Protein expression was determined from blood (plasma) samples from baseline (untreated) renal cell carcinoma (RCC) patients using MesoScale assay.
Renal cancer patients were treated with CPI-444, and change in tumor size was measured.

In the case of `Cc1ccc(-c2nc(N)nc3c2nnn3Cc2cccc(CO[C@H]3CCOC3)n2)o1` [CPI-444, (S)-7-(5-methylfuran-2-yl)-3-((6-(((tetrahydrofuran-3-yl)oxy)methyl)pyridin-2-yl)methyl)-3H-[1,2,3]triazolo[4,5-d]pyrimidin-5-amine], the “adenosine agonist-induced genes and proteins, effect of CPI-444” value in test [1] was “Inhibition of these genes and proteins”. Also, in test [2], the “anti-tumor activity as a monotherapy” value was “demonstrated anti-tumor activity”. Besides, in test [3], the “IL6 and IL8 levels in blood plasma after treatment” value is given as “reduced; also recorded: decreased”. The “NECA-induced increase in CXCL5 protein (ELISA), effect of added CPI-444” value in test [4] was “blocked”. In addition, the “A2AR stimulation-induced gene expression changes, effect of CPI-444” value in test [5] is given as “inhibited these changes”. Further, the “response to CPI-444 monotherapy, patients with high CD68 or high CD163 gene levels in the tumors” value in test [6] (RCC patients, vs low levels of CD68 or CD163) is reported as “more likely to respond”. For the same molecule, in test [6] (ongoing Ph 1/1b trial, RCC, vs patients with low expression), the “tumor regression with CPI-444, patients with high expression of adenosine-modulated gene subset” value is listed as “more likely to have tumor regression”. Moreover, in test [6] (patients with RCC, two subjects), the “reduction in tumor size (best overall change) after CPI-444 treatment” value is “greater than 30%”. In test [6] (renal cancer patients), the “change in tumor size after CPI-444 treatment, tumors with low composite gene expression score” value is recorded as “tumor regression was not observed”; the “response to CPI-444, patients with high CCL20 and low CX3CL1 plasma protein levels” value is recorded as “more likely to respond”. In addition, the “change in tumor size after CPI-444 treatment, tumors with high composite gene expression score” value in test [6] (renal cancer patients, four patients) is reported as “reduction in tumor size”.
